Results taken from US20250127918A1, “SITE-SELECTIVE CONJUGATION OF A PHARMACEUTICAL AGENT TO AN ANTIBODY USING AN AFFINITY PEPTIDE” (priority 2023, published 2025).

Key:
Assay type in all cases: in vivo, mouse
WT Swiss mice [1] = assay: Toxicity / safety profile of GLP1 conjugates in WT Swiss mice
Experimental: All animal experiments were performed under an MIT institute approved IACUC protocol following federal, state, and local guidelines for the care and use of animals (protocol number #0821-058-24). The studies were performed on 30-35 g (5-8 weeks-old) healthy female Swiss mice, purchased from The Jackson Laboratory (MA, USA). Mice were housed with free access to food and water ad libitum unless stated otherwise for the need of the experiment. […] Intraperitoneal injections (IP) were performed on vigil mice, in the lower right abdominal quadrant. For blood collection, mice were either punctured in the heart (terminal procedure), or gently pressed at the tail following tail pricks (vigil). […] The animals were sacrificed by CO2 inhalation followed by cervical dislocation. All compounds injected in mice were either USP grade, sterile, or filtered using 0.22 μm.
(§1) Six hours before the Ip-GTT, the mice were fasted by removing the food, the enrichment, and by placing them in a new cage to avoid coprophagy. Access to water was, however kept free and ad libitum for the entire experiment. Five minutes before the Ip-GTT, basal glycemia was measured by taking a small drop of blood using tail pricks.
In the other cohorts, 2a,3a was SC administered following either 10 mg/kg (25 nmol), 30 mg/kg (75 nmol), or three injections of 10 mg/kg, 1 per week for 3 weeks (30 mg/kg total, 75 nmol total).
(§2) All animal experiments were performed under an MIT institute approved IACUC protocol following federal, state, and local guidelines for the care and use of animals (protocol number #0821-058-24). The studies were performed either on 35-45 g (12-16 weeks-old) wild-type female Swiss mice, 25-30 g (14-20 weeks-old) male and female C57BL/6J mice, or 55-70 g (16 weeks-old) male and female obese Lep^ob/ob mice, all purchased from The Jackson Laboratory (MA, USA). Mice were housed with free access to normal food diet and water ad libitum unless stated otherwise for the need of the experiment. […] Intraperitoneal injections (IP) were performed on non-anesthetized mice, in the lower right abdominal quadrant. Blood collection for the ELISA assays and biodistributions was performed as a terminal procedure by heart puncture immediately after the sacrifice. For Ip-GTT and Ip-ITT mice were restrained and gently pressed at the tail following tail pricks. The animals were sacrificed by CO2 inhalation followed by cervical dislocation. All compounds injected in mice were either USP grade, sterile, or filtered using 0.22 μm.

Lep^ob/ob mice = assay: Safety profile of GLP-1a conjugates in Lep^ob/ob mice; conditions: 10 mg/kg; for Number of mice showing significant aggressiveness / Number of mice with Piloerection, Moderate: cohort of 3 mice
Experimental: In Lep^ob/ob obese mice, two routes were assessed for the 10 mg/kg dose: SC and IP (Table 21). […] Investigations about the PD of 2a,3a following SC injection of 10 mg/kg were pursued in both mice models.
as §2

WT Swiss mice [2] = assay: Intraperitoneal glucose tolerance test (Ip-GTT) in WT Swiss mice; conditions: Ip-GTT after injection
Experimental: as §1

SMILES: CC[C@H](C)[C@H](NC(=O)[C@H](Cc1ccccc1)NC(=O)[C@H](CCC(=O)O)NC(=O)[C@H](CCCCNC(=O)COCCOCCNC(=O)COCCOCCNC(=O)CC[C@H](NC(=O)CCCCCCCCCCCCCCCCC(=O)O)C(=O)O)NC(=O)[C@H](C)NC(=O)[C@H](C)NC(=O)[C@H](CCC(N)=O)NC(=O)CNC(=O)[C@H](CCC(=O)O)NC(=O)[C@H](CC(C)C)NC(=O)[C@H](Cc1ccc(O)cc1)NC(=O)[C@H](CO)NC(=O)[C@H](CO)NC(=O)[C@@H](NC(=O)[C@H](CC(=O)O)NC(=O)[C@H](CO)NC(=O)[C@@H](NC(=O)[C@H](Cc1ccccc1)NC(=O)[C@@H](NC(=O)CNC(=O)[C@H](CCC(=O)O)NC(=O)C(C)(C)NC(=O)[C@@H](N)Cc1cnc[nH]1)[C@@H](C)O)[C@@H](C)O)C(C)C)C(=O)N[C@@H](C)C(=O)N[C@@H](Cc1c[nH]c2ccccc12)C(=O)N[C@@H](CC(C)C)C(=O)N[C@H](C(=O)N[C@@H](CCCNC(=N)N)C(=O)NCC(=O)N[C@@H](CCCNC(=N)N)C(=O)NCC(=O)O)C(C)C [Semaglutide]
- Number of mice with Aggressiveness (WT Swiss mice [1]; SC 0.5 mg/kg, cohort of 5 mice): 0
- Number of mice with Piloerection Mild (WT Swiss mice [1]; SC 0.5 mg/kg, cohort of 5 mice): 0
- Number of mice with Piloerection Severe (WT Swiss mice [1]; SC 0.5 mg/kg, cohort of 5 mice): 0
- Number of mice with Piloerection, Moderate (WT Swiss mice [1]; SC 0.5 mg/kg, cohort of 5 mice): 0
- Number of mice with Piloerection Mild (WT Swiss mice [1]; SC 3 mg/kg, cohort of 5 mice): 0
- Number of mice with Piloerection Mild (WT Swiss mice [1]; SC 10 mg/kg, cohort of 15 mice): 0
- Number of mice with Piloerection, Moderate (WT Swiss mice [1]; SC 10 mg/kg, cohort of 15 mice, time per cell footnote (¤ over 48 h)): 0
- Tolerability, both routes (SC and IP) (Lep^ob/ob mice; Lep^ob/ob obese mice): significantly impact the mice behavior and induce hypoglycemia
- Mean fasting blood glucose (Lep^ob/ob mice; female Lep^ob/ob mice, IP): 104 ± 6 mg/dL
- Number of mice showing significant aggressiveness (Lep^ob/ob mice; female Lep^ob/ob mice, IP): 3
- Mean fasting blood glucose (Lep^ob/ob mice; female Lep^ob/ob mice, SC): 97 ± 7 mg/dL
- Number of mice showing significant aggressiveness (Lep^ob/ob mice; female Lep^ob/ob mice, SC): 3
- Number of mice with Piloerection, Moderate (Lep^ob/ob mice; female Lep^ob/ob mice, SC): 3
- Mean fasting blood glucose (Lep^ob/ob mice; male Lep^ob/ob mice, IP): 111 ± 14 mg/dL
- Number of mice showing significant aggressiveness (Lep^ob/ob mice; male Lep^ob/ob mice, IP): 3
- Mean fasting blood glucose (Lep^ob/ob mice; male Lep^ob/ob mice, SC): 75 ± 12 mg/dL
- Number of mice showing significant aggressiveness (Lep^ob/ob mice; male Lep^ob/ob mice, SC): 3
- Number of mice with Piloerection, Moderate (Lep^ob/ob mice; male Lep^ob/ob mice, SC): 3
- Hypoglycemia (WT Swiss mice [2]): induce hypoglycemia
